Assay results taken from publication PMC3355227 (ACS Chemical Biology, 2012).
Where a SMILES comes first, the peptide text is derived from it. Where no end group is shown, it is not given here. [ ]: non-standard residue; d: D form. The star is where a group is joined. pT = C[C@@H](OP(=O)(O)O)[C@H](N)C(=O)O; Hyp = O=C(O)[C@@H]1C[C@@H](O)CN1; Butyl(4-Ph) = c1ccc(CCCC*)cc1

What was measured:
[1] = target: HA-EGFP-Plk1 (Plk1 PBD) in mitotic 293A cell lysates (Homo sapiens, UniProt P53350); experiment: ELISA-based PBD-binding inhibition assay; details: relative comparison; oxime libraries tested as crude reaction mixtures
Flag-Plk2 (K108M) = Flag-Plk2 (K108M) (Mus musculus, UniProt P53351, K108M); experiment: Peptide pull-down assay from mitotic 293T cell lysates, Plk2; details: bead-immobilized peptide, anti-Flag immunoblot
Chain of Flag-Plk2 (K108M) (P53351 whole entry K108M): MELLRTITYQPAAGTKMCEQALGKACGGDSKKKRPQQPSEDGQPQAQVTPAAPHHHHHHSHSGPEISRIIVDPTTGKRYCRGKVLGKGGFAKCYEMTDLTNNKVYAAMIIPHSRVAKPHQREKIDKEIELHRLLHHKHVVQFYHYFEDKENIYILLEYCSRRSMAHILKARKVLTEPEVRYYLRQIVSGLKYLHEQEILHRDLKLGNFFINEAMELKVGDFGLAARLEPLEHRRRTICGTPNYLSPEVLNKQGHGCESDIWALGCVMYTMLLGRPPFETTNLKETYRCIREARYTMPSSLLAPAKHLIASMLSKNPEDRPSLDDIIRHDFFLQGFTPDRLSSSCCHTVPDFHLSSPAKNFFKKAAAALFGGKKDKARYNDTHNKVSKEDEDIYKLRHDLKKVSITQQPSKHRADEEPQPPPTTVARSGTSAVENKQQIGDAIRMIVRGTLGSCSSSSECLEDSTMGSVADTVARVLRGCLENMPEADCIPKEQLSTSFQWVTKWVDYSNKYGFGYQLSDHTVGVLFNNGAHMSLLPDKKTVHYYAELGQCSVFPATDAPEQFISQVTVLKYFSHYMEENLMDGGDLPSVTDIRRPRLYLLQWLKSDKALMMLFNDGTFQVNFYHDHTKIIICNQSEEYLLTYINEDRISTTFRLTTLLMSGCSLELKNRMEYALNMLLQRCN

Chain of HA-EGFP-Plk1 (Plk1 PBD) in mitotic 293A cell lysates (P53350 whole entry): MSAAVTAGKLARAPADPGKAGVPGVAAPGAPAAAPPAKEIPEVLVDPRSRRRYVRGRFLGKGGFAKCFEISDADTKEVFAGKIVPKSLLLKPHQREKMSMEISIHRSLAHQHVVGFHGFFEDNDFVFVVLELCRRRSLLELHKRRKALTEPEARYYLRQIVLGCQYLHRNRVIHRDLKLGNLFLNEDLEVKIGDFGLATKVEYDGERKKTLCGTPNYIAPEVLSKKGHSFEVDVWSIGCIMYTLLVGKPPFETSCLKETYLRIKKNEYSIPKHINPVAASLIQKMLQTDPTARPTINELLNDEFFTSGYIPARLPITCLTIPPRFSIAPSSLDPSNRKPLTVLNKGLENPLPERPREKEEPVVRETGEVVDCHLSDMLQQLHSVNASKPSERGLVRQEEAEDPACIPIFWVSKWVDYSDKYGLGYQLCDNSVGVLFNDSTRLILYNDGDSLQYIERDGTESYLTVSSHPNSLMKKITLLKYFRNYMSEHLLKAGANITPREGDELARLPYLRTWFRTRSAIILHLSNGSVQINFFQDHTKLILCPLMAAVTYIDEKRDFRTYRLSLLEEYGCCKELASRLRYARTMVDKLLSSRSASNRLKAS

Compound | relative binding affinity in ELISA-based Plk1 inhibition assay [1] | band for binding to Plk2 in pull-down (Flag-Plk2 (K108M)) | band for binding to Plk2 in pull-down (Flag-Plk2 (K108M); listed as 7*)
8(S4A): variant of 8 with the serine residue replaced by alanine (P(Butyl(4-Ph))LHA[pT]) | significant loss of affinity |  | 
CC(=O)N1C[C@H](OCCCCc2ccccc2)C[C@H]1C(=O)N[C@@H](CC(C)C)C(=O)N[C@@H](Cc1c[nH]cn1)C(=O)N[C@@H](C)C(=O)N[C@H](C(N)=O)[C@@H](C)OP(=O)(O)O [7(S4A)] (Ac-[Hyp](Butyl(4-Ph))LHA[pT]-NH2; N-terminus and C-terminus assumed) | significant loss of affinity |  | 
CC(=O)N1C[C@H](OCCCCc2ccccc2)C[C@H]1C(=O)N[C@@H](CC(C)C)C(=O)N[C@@H](Cc1c[nH]cn1)C(=O)N[C@@H](CO)C(=O)N[C@H](C(N)=O)[C@@H](C)OP(=O)(O)O [compound 7] |  | faint band | not seen
